Test results published in ChEMBL document CHEMBL1201862, “PubChem BioAssay data set” (2004).
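Values below derive from 48-hour exposures of cells grown in 96-well plates, with endpoints linearly interpolated between the two concentrations bracketing the appropriate inhibition level. GI50 is the concentration that inhibits growth by half.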 Calls of active or inactive are those of the source. Cut-off read from the data, not from the text of the source: active = GI50 up to about 1.1 µM and inactive = higher.

Experiments:
Experiment in all cases: growth of human tumour cells (NCI), 48 h
TK-10 = tested on: TK-10
DMS-114 = tested on: DMS-114
HL-60 = tested on: HL-60
A498 = tested on: A498
SK-OV-3 = tested on: SK-OV-3
XF498 = tested on: XF498
LOX IMVI = tested on: LOX IMVI
OVCAR-4 = tested on: OVCAR-4
OVCAR-5 = tested on: OVCAR-5
RXF 631 = tested on: RXF 631
LXFL 529 = tested on: LXFL 529
HCT-15 = tested on: HCT-15
EKVX = tested on: EKVX
HT-29 = tested on: HT-29
SF-539 = tested on: SF-539
SW-620 = tested on: SW-620
DMS-273 = tested on: DMS-273
K562 = tested on: K562
HCT-116 = tested on: HCT-116
OVCAR-8 = tested on: OVCAR-8
UACC-257 = tested on: UACC-257
COLO 205 = tested on: COLO 205
HCC 2998 = tested on: HCC 2998
U-251 = tested on: U-251
CCRF-CEM = tested on: CCRF-CEM
IGROV-1 = tested on: IGROV-1
ACHN = tested on: ACHN
NCI-H226 = tested on: NCI-H226
SF-295 = tested on: SF-295
UACC-62 = tested on: UACC-62
DLD-1 = tested on: DLD-1
A549 = tested on: A549
SNB-19 = tested on: SNB-19
Malme-3M = tested on: Malme-3M
SNB-75 = tested on: SNB-75
NCI-H23 = tested on: NCI-H23
NCI-H460 = tested on: NCI-H460
SK-MEL-5 = tested on: SK-MEL-5
HOP-62 = tested on: HOP-62
SR = tested on: SR
OVCAR-3 = tested on: OVCAR-3
KM-20L2 = tested on: KM-20L2
UO-31 = tested on: UO-31
SK-MEL-28 = tested on: SK-MEL-28
CAKI-1 = tested on: CAKI-1
MOLT-4 = tested on: MOLT-4
RXF 393 = tested on: RXF 393
RPMI-8226 = tested on: RPMI-8226
SN12C = tested on: SN12C
M19-MEL = tested on: M19-MEL
786-0 = tested on: 786-0
NCI-H522 = tested on: NCI-H522
HOP-92 = tested on: HOP-92
SF-268 = tested on: SF-268
KM12 = tested on: KM12
M14 = tested on: M14
SK-MEL-2 = tested on: SK-MEL-2
SNB-78 = tested on: SNB-78

**Q.** What does the source list for `O=C1OC(c2ccccc2)(c2ccccc2)c2ccc3ccc(F)cc3c21`?
**A.** GI50 (TK-10): > 100 µM (inactive); GI50 (DMS-114): 9.23 µM (inactive); GI50 (HL-60): 9.4 µM (inactive); GI50 (A498): > 100 µM (inactive); GI50 (SK-OV-3): > 100 µM (inactive); GI50 (XF498): > 100 µM (inactive); GI50 (LOX IMVI): 60.3 µM (inactive); GI50 (OVCAR-4): > 100 µM (inactive); GI50 (OVCAR-5): > 100 µM (inactive); GI50 (RXF 631): 51.4 µM (inactive); GI50 (LXFL 529): > 100 µM (inactive); GI50 (HCT-15): 35.5 µM; GI50 (EKVX): 53.3 µM (inactive); GI50 (HT-29): 13.6 µM (inactive); GI50 (SF-539): > 100 µM (inactive); GI50 (SW-620): 23.9 µM (inactive); GI50 (DMS-273): 7.21 µM (inactive); GI50 (K562): 6.28 µM (inactive); GI50 (HCT-116): 27 µM (inactive); GI50 (OVCAR-8): > 100 µM (inactive); GI50 (UACC-257): 37.1 µM (inactive); GI50 (COLO 205): > 100 µM (inactive); GI50 (HCC 2998): 37.2 µM (inactive); GI50 (U-251): 77.1 µM (inactive); GI50 (CCRF-CEM): 31.3 µM (inactive); GI50 (IGROV-1): > 100 µM (inactive); GI50 (ACHN): 49.8 µM (inactive); GI50 (NCI-H226): > 100 µM (inactive); GI50 (SF-295): 13 µM (inactive); GI50 (UACC-62): 26.9 µM (inactive); GI50 (DLD-1): > 100 µM (inactive); GI50 (A549): 19.3 µM (inactive); GI50 (SNB-19): > 100 µM (inactive); GI50 (Malme-3M): > 100 µM (inactive); GI50 (SNB-75): 37.6 µM (inactive); GI50 (NCI-H23): 52.8 µM (inactive); GI50 (NCI-H460): > 100 µM (inactive); GI50 (SK-MEL-5): 20 µM (inactive); GI50 (HOP-62): > 100 µM (inactive); GI50 (SR): 10.7 µM (inactive); GI50 (OVCAR-3): 68.7 µM (inactive); GI50 (KM-20L2): 21.8 µM (inactive); GI50 (UO-31): 79.4 µM (inactive); GI50 (SK-MEL-28): > 100 µM (inactive); GI50 (CAKI-1): 33.3 µM (inactive); GI50 (MOLT-4): > 100 µM (inactive); GI50 (RXF 393): > 100 µM (inactive); GI50 (RPMI-8226): > 100 µM (inactive); GI50 (SN12C): > 100 µM (inactive); GI50 (M19-MEL): 20.7 µM (inactive); GI50 (786-0): > 100 µM (inactive); GI50 (NCI-H522): 51.1 µM (inactive); GI50 (HOP-92): 2.66 µM (inactive); GI50 (SF-268): > 100 µM (inactive); GI50 (KM12): > 100 µM (inactive); GI50 (M14): > 100 µM (inactive); GI50 (SK-MEL-2): > 100 µM (inactive)

**Q.** With `CC(=O)c1cc([N+](=O)[O-])ccc1OCC(=O)O` as the compound, how does the GI50 (TK-10) read?
**A.** > 100 µM (inactive)

**Q.** What about the GI50 (DMS-114) of the same compound?
**A.** > 100 µM (inactive)

**Q.** And the GI50 (HL-60)?
**A.** > 100 µM (inactive)

**Q.** What about the GI50 (A498) of the same compound?
**A.** > 100 µM (inactive)

**Q.** What about the GI50 (SK-OV-3) of the same compound?
**A.** > 100 µM (inactive)

**Q.** And the GI50 (LOX IMVI)?
**A.** > 100 µM (inactive)

**Q.** What about the GI50 (OVCAR-4) of the same compound?
**A.** > 100 µM (inactive)

**Q.** What about the GI50 (OVCAR-5) of the same compound?
**A.** > 100 µM (inactive)

**Q.** What about the GI50 (RXF 631) of the same compound?
**A.** > 100 µM (inactive)

**Q.** What about the GI50 (LXFL 529) of the same compound?
**A.** > 100 µM (inactive)

**Q.** What about the GI50 (HCT-15) of the same compound?
**A.** > 100 µM

**Q.** And the GI50 (EKVX)?
**A.** > 100 µM (inactive)

**Q.** And the GI50 (HT-29)?
**A.** > 100 µM (inactive)

**Q.** What about the GI50 (SF-539) of the same compound?
**A.** > 100 µM (inactive)

**Q.** What about the GI50 (SW-620) of the same compound?
**A.** > 100 µM (inactive)

**Q.** What about the GI50 (DMS-273) of the same compound?
**A.** > 100 µM (inactive)

**Q.** And the GI50 (K562)?
**A.** > 100 µM (inactive)

**Q.** And the GI50 (HCT-116)?
**A.** > 100 µM (inactive)

**Q.** And the GI50 (OVCAR-8)?
**A.** > 100 µM (inactive)

**Q.** What about the GI50 (UACC-257) of the same compound?
**A.** > 100 µM (inactive)

**Q.** And the GI50 (COLO 205)?
**A.** > 100 µM (inactive)

**Q.** What about the GI50 (HCC 2998) of the same compound?
**A.** > 100 µM (inactive)

**Q.** What about the GI50 (U-251) of the same compound?
**A.** > 100 µM (inactive)

**Q.** What about the GI50 (CCRF-CEM) of the same compound?
**A.** > 100 µM (inactive)

**Q.** And the GI50 (IGROV-1)?
**A.** > 100 µM (inactive)

**Q.** And the GI50 (ACHN)?
**A.** > 100 µM (inactive)

**Q.** What about the GI50 (NCI-H226) of the same compound?
**A.** > 100 µM (inactive)

**Q.** What about the GI50 (SF-295) of the same compound?
**A.** > 100 µM (inactive)

**Q.** What about the GI50 (UACC-62) of the same compound?
**A.** > 100 µM (inactive)

**Q.** What about the GI50 (DLD-1) of the same compound?
**A.** > 100 µM (inactive)

**Q.** And the GI50 (A549)?
**A.** > 100 µM (inactive)

**Q.** What about the GI50 (SNB-19) of the same compound?
**A.** > 100 µM (inactive)

**Q.** And the GI50 (Malme-3M)?
**A.** > 100 µM (inactive)

**Q.** What about the GI50 (SNB-75) of the same compound?
**A.** > 100 µM (inactive)

**Q.** What about the GI50 (NCI-H23) of the same compound?
**A.** > 100 µM (inactive)

**Q.** And the GI50 (SNB-78)?
**A.** > 100 µM (inactive)

**Q.** What about the GI50 (NCI-H460) of the same compound?
**A.** > 100 µM (inactive)

**Q.** What about the GI50 (SK-MEL-5) of the same compound?
**A.** > 100 µM (inactive)

**Q.** And the GI50 (HOP-62)?
**A.** > 100 µM (inactive)

**Q.** And the GI50 (OVCAR-3)?
**A.** > 100 µM (inactive)

**Q.** And the GI50 (KM-20L2)?
**A.** > 100 µM (inactive)

**Q.** What about the GI50 (UO-31) of the same compound?
**A.** > 100 µM (inactive)

**Q.** And the GI50 (SK-MEL-28)?
**A.** > 100 µM (inactive)

**Q.** What about the GI50 (CAKI-1) of the same compound?
**A.** > 100 µM (inactive)

**Q.** And the GI50 (MOLT-4)?
**A.** > 100 µM (inactive)

**Q.** And the GI50 (RXF 393)?
**A.** > 100 µM (inactive)

**Q.** And the GI50 (RPMI-8226)?
**A.** > 100 µM (inactive)

**Q.** What about the GI50 (SN12C) of the same compound?
**A.** > 100 µM (inactive)

**Q.** And the GI50 (M19-MEL)?
**A.** > 100 µM (inactive)

**Q.** And the GI50 (786-0)?
**A.** > 100 µM (inactive)

**Q.** What about the GI50 (NCI-H522) of the same compound?
**A.** > 100 µM (inactive)

**Q.** What about the GI50 (HOP-92) of the same compound?
**A.** > 100 µM (inactive)

**Q.** What about the GI50 (SF-268) of the same compound?
**A.** > 100 µM (inactive)

**Q.** What about the GI50 (KM12) of the same compound?
**A.** > 100 µM (inactive)

**Q.** What about the GI50 (M14) of the same compound?
**A.** > 100 µM (inactive)

**Q.** And the GI50 (SK-MEL-2)?
**A.** > 100 µM (inactive)
